Data from patent US4566984A, “Ether polycarboxylates” (The Procter & Gamble Company, priority 1984, dated 1986).
Structures can show the parent of a compound that is named as a salt.

Assay: Calcium Binding Constants Determination (calcium selective electrode titration)
Assay type: physicochemical
Conditions: for Calcium Ion Binding Constants, Log KCa, pH 9.5 / Calcium Ion Binding Constants, Log KCa, pH 7.6: 35° C., 0.1 M ionic strength
Description: A computer system (Hewlett-Packard) with digital voltmeters was used to collect and analyze data from an Orion calcium selective electrode and a linear syringe buret (Sage Instruments syringe pump plus a linear potentiometer). […] Volumetric accuracy was better than +/- 0.5%.
Three hundred data pairs of [Ca total] vs 10^(E/S), which is a linear measure of [Ca free], were collected and corrected for dilution during each titration. S is the Nernst equation slope, ca. 29 mv/decade, and E is the calcium electrode voltage. Calcium ion was titrated into buffer solution. Here, L represents the sequestering ligand. A ligand-free standard titration calibrated the electrode response. […] A third titration, adding Ca ion to a solution of a fixed [L tot] and fixed [Mg tot] was compared with KCa at different [Ca tot]/[L tot] ratios to reveal KMg at those same ratios. [formula]
This line was extrapolated back to [Ca free]=0 and [Ca tot] at that point represented a measure of calcium binding capacity.

| Compound | Calcium Ion Binding Constants, Log KCa, pH 9.5 | Calcium Ion Binding Constants, Log KCa, pH 7.6 | calcium binding relative to sodium tripolyphosphate and sodium nitrilotriacetate | calcium binding relative to two prior art ether carboxylates and sodium citrate |
| --- | --- | --- | --- | --- |
| O=C(O)COC(CC(=O)O)(C(=O)O)C(=O)O [Compound 5, 3,3-dicarboxy-4-oxa-1,6 hexanedioic acid, tetrasodium salt] | 5.5 | 5.3 | at least equivalent | clear advantage in calcium binding |
| O=C([O-])C1CCC(C(=O)[O-])C(C(=O)[O-])(C(=O)[O-])O1.[Na+].[Na+].[Na+].[Na+] (stereo not drawn) [Compound 7, Oxacyclohexane-2,2,3,6-tetracarboxylic acid, tetrasodium salt] | 6.2 |  | at least equivalent | clear advantage in calcium binding |
| O=C([O-])CN(CC(=O)[O-])CC(=O)[O-].[Na+].[Na+].[Na+] [Nitrilotriacetic acid, sodium salt, reference compound] | 5.5 | 3.3 |  |  |

Continued, in another order:

| Calcium Ion Binding Constants, Log KCa, pH 9.5 | Calcium Ion Binding Constants, Log KCa, pH 7.6 | Compound | calcium binding relative to sodium tripolyphosphate and sodium nitrilotriacetate | calcium binding relative to two prior art ether carboxylates and sodium citrate |
| --- | --- | --- | --- | --- |
| 4.4 |  | O=C(O)COC(CC(=O)O)C(=O)O (stereo not drawn) [2-oxa-1,3,4 butanetricarboxylic acid, sodium salt, reference compound] |  |  |
| 4.9 | 3.1 | O=P(O)(O)OP(=O)(O)OP(=O)(O)O [Sodium tripolyphosphate, reference compound] |  |  |
